Molecular target: T1, CX3CR1 (Homo sapiens, UniProt P49238)
T1 construct: expressed in transfected cells; host or cells: B300 cells
T1 sequence (P49238 1-355): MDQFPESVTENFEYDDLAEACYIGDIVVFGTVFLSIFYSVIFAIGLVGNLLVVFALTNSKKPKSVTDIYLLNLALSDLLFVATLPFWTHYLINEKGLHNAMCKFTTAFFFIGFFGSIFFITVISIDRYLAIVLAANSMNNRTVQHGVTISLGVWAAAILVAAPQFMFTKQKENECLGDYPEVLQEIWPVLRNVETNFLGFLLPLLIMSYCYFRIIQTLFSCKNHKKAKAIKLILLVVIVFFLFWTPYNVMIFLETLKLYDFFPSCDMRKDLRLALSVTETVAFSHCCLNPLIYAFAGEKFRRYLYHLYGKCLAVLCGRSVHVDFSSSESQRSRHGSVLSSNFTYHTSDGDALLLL
Test: Inhibition of cell migration in fractalkine-induced chemotaxis assay
Type: cell-based
Conditions: fractalkine-induced (0.3 nM) migration of CX3CR1-expressing B300 cells; preincubated with test compound for 30 minutes; Transwell, 3.5 hours at 37°C
Method: The inhibitory effects of the example compounds on fractalkine-induced cell migration were examined using CX3CR1-transfected B300 cells
After equilibrating the Transwell plate (24-well clusters, pore size: 5 µm, manufactured by Corning Incorporated), a fractalkine solution (0.3 nM, manufactured by R&D Systems, Inc.) was added to the lower wells. CX3CR1-expressing B300 cells which were preincubated with the test compound (0.001, 0.003, 0.01 or 0.03 µM) for 30 minutes were placed in the upper layer wells, followed by incubation under the condition of 5% CO2 for 3.5 hours at 37°C. The number of cells migrated to the lower wells was evaluated using CellTiter (manufactured by Promega Corporation).
The inhibitory rate of the test compound on fractalkine-induced cell migration was calculated by the following formula, where [A] is the number of migrated cells in the presence of both fractalkine and the test compound, [B] is the number of migrated cells in the presence of fractalkine and in the absence of the test compound, and [C] is the number of migrated cells in the absence of both fractalkine and the test compound; the 50% inhibitory concentration (IC50) was calculated based on the inhibitory rate. Inhibitory rate (%) = [1-{(A-C)/(B-C)}] × 100

Compound	IC50
C[C@H]1CN(Cc2c(Cl)cccc2Cl)C[C@@]1(CC(=O)O)C(=O)N[C@H]1CCN(CC2=CCCCC2)C1 [Example 9, 2-[(3S,4R)-3-{[(3S)-1-(Cyclohex-1-en-1-ylmethyl)pyrrolidin-3-yl]carbamoyl}-1-[(2,6-dichlorophenyl)methyl]-4-methylpyrrolidin-3-yl]acetic acid]	0.016 µM
C[C@H]1CN(Cc2c(Cl)cccc2C(F)(F)F)C[C@@]1(CC(=O)O)C(=O)NC1CCN(CC2=CCCCC2)CC1 [Example 3, 2-[(3S,4R)-1-{[2-Chloro-6-(trifluoromethyl)phenyl]methyl}-3-{[1-(cyclohex-1-en-1-ylmethyl)piperidin-4-yl]carbamoyl}-4-methylpyrrolidin-3-yl]acetic acid]	0.004 µM
C[C@H]1CN(Cc2c(Cl)cccc2C(F)(F)F)C[C@@]1(CC(=O)O)C(=O)NC1CCN(CC2=CCCC2)CC1 [Example 7, 2-[(3S,4R)-1-{[2-Chloro-6-(trifluoromethyl)phenyl]methyl}-3-{[1-(cyclopent-1-en-1-ylmethyl)piperidin-4-yl]carbamoyl}-4-methylpyrrolidin-3-yl]acetic acid]	0.005 µM
Cc1cccc(Cl)c1CN1C[C@H](C)[C@](CC(=O)O)(C(=O)NC2CCN(CC3=CCCCC3)CC2)C1 [Example 6, 2-[(3S,4R)-1-[(2-Chloro-6-methylphenyl)methyl]-3-{[1-(cyclohex-1-en-1-ylmethyl)piperidin-4-yl]carbamoyl}-4-methylpyrrolidin-3-yl]acetic acid]	0.011 µM
C[C@H]1CN(Cc2c(Cl)cccc2Cl)C[C@@]1(CC(=O)O)C(=O)NC1CCN(CC2CCC(F)(F)CC2)CC1 [Example 2, 2-[(3S,4R)-1-[(2,6-Dichlorophenyl)methyl]-3-({1-[(4,4-difluorocyclohexyl)methyl]piperidin-4-yl}carbamoyl)-4-methylpyrrolidin-3-yl]acetic acid]	0.021 µM

Continued, values first:

IC50	Compound
0.013 µM	CCCC(F)CN1CCC(NC(=O)[C@]2(CC(=O)O)CN(Cc3c(Cl)cccc3C(F)(F)F)C[C@@H]2C)CC1 (stereo partly drawn) [Example 1, 2-[(3S,4R)-1-{[2-chloro-6-(trifluoromethyl)phenyl]methyl}-3-{[1-(2-fluoropentyl)piperidin-4-yl]carbamoyl}-4-methylpyrrolidin-3-yl]acetic acid]
0.012 µM	C[C@H]1CN(Cc2c(Cl)cccc2C(F)F)C[C@@]1(CC(=O)O)C(=O)NC1CCN(CC2CCCCC2)CC1 [Example 14, 2-[(3S,4R)-1-{[2-Chloro-6-(difluoromethyl)phenyl]methyl}-3-{[1-(cyclohexylmethyl)piperidin-4-yl]carbamoyl}-4-methylpyrrolidin-3-yl]acetic acid]
0.016 µM	C[C@H]1CN(Cc2c(Cl)cccc2C(F)F)C[C@@]1(CC(=O)O)C(=O)NC1CCN(CC2=CCCC2)CC1 [Example 13, 2-[(3S,4R)-1-{[2-Chloro-6-(difluoromethyl)phenyl]methyl}-3-{[1-(cyclopent-1-en-1-ylmethyl)piperidin-4-yl]carbamoyl}-4-methylpyrrolidin-3-yl]acetic acid]
0.014 µM	CCCCCCN1CCC(NC(=O)[C@]2(CC(=O)O)CN(Cc3c(Cl)cccc3C(F)F)C[C@@H]2C)CC1 [Example 10, 2-[(3S,4R)-1-{[2-Chloro-6-(difluoromethyl)phenyl]methyl}-3-[(1-hexylpiperidin-4-yl)carbamoyl]-4-methylpyrrolidin-3-yl]acetic acid]
0.006 µM	C[C@H]1CN(Cc2c(Cl)cccc2C(F)F)C[C@@]1(CC(=O)O)C(=O)NC1CCN(CC2=CCCCC2)CC1 [Example 12, 2-[(3S,4R)-1-{[2-Chloro-6-(difluoromethyl)phenyl]methyl}-3-{[1-(cyclohex-1-en-1-ylmethyl)piperidin-4-yl]carbamoyl}-4-methylpyrrolidin-3-yl]acetic acid]

From patent publication EP2757103B1, “PYRROLIDINE-3-YLACETIC ACID DERIVATIVE” (Eisai R&D Management Co., Ltd., priority 2011, dated 2013)
